Target: T1, human ferroportin (Homo sapiens, UniProt Q9NP59)
T1 construct: luciferase reporter (read with the Nano-Glo Luciferase Assay System); expressed in transfected cells; host or cells: CHO cells, stably transfected, expression induced with doxycycline
T1 sequence (Q9NP59 1-571): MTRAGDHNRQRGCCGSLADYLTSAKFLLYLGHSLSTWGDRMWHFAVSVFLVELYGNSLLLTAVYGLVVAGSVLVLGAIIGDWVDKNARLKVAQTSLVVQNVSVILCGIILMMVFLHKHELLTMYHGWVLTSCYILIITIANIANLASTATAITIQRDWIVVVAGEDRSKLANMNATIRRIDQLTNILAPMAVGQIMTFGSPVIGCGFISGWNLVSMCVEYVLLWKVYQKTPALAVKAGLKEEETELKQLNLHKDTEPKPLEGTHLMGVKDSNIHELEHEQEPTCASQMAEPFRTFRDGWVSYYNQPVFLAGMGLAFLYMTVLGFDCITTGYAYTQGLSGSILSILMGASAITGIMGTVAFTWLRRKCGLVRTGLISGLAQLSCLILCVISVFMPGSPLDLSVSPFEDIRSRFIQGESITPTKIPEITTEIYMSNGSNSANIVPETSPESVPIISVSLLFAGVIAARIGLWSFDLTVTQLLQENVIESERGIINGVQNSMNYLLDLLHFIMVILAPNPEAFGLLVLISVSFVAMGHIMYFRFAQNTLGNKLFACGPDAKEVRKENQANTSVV
Assay: Biological in-vitro ferroportin internalization assay (luciferase reporter)
Format: cell-based
Settings: average pEC50; stably-transfected CHO cell line expressing human ferroportin tagged to a luciferase reporter; 6 h incubation with test compound
In short: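 Stably transfected CHO cells expressing luciferase-tagged human ferroportin, plated 24 h with ferric ammonium citrate and induced with doxycycline for 24 h. Compounds incubated 6 h, then luciferase activity measured by Nano-Glo; average pEC50 reported.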

| pEC50 | SMILES |
| --- | --- |
| 7.8 | CN(CC(=O)NC12CC(C1)C2)c1nc(-c2cc(OCCO)ccn2)nc2c1CCC2 [Compound 349, N-{bicyclo[1.1.1]pentan-1-yl}-2-({2-[4-(2-hydroxyethoxy)pyridin-2-yl]-5H,6H,7H-cyclopenta[d]pyrimidin-4-yl}(methyl)amino)acetamide] |
| 7.7 | Cc1cc(NC(=O)CN(C)c2nc(-c3cc(OCCO)ccn3)nc3c2CCC3)sn1 [Compound 350, 2-({2-[4-(2-hydroxyethoxy)pyridin-2-yl]-5H,6H,7H-cyclopenta[d]pyrimidin-4-yl}(methyl)amino)-N-(3-methyl-1,2-thiaozl-5-yl)acetamide] |
| 7.7 | CN(CC(=O)N1CCCC1)c1nc(-c2cc(OCCO)ccn2)nc2c1CCC2 [Compound 354, 2-({2-[4-(2-hydroxyethoxy)pyridin-2-yl]-5H,6H,7H-cyclopenta[d]pyrimidin-4-yl}(methyl)amino)-1-(pyrrolidin-1-yl)ethan-1-one] |
| 7.7 | CN(CC(=O)N1CCC(F)(F)CC1)c1nc(-c2cc(OCCO)ccn2)nc2c1CCC2 [Compound 355, 1-(4,4-difluoropiperidin-1-yl)-2-({2-[4-(2-hydroxyethoxy)pyridin-2-yl]-5H,6H,7H-cyclopenta[d]pyrimidin-4-yl}(methyl)amino)ethan-1-one] |
| 7.7 | CN(CC(=O)N1CCCCCC1)c1nc(-c2cc(OCCO)ccn2)nc2c1CCC2 [Compound 357, 1-(azepan-1-yl)-2-({2-[4-(2-hydroxyethoxy)pyridin-2-yl]-5H,6H,7H-cyclopenta[d]pyrimidin-4-yl}(methyl)amino)ethan-1-one] |
| 7.7 | CN(CC(=O)N1CCCCCC1)c1nc(-c2cc(OC3COC3)ccn2)nc2c1CCC2 [Compound 358, 1-(azepan-1-yl)-2-[methyl({2-[4-(oxetan-3-yloxy)pyridin-2-yl]-5H,6H,7H-cyclopenta[d]pyrimidin-4-yl})amino]ethan-1-one] |
| 7.5 | CN(CC(=O)N1CCC(F)CC1)c1nc(-c2cc(OCCO)ccn2)nc2c1CCC2 [Compound 359, 1-(4-fluoropiperidin-1-yl)-2-({2-[4-(2-hydroxyethoxy)pyridin-2-yl]-5H,6H,7H-cyclopenta[d]pyrimidin-4-yl}(methyl)amino)ethan-1-one] |
| 8.1 | CN(CC(=O)NC(C)(C)C)c1nc(-c2cc(OCCO)ccn2)nc2c1C(C)(C)CC2 [Compound 361, N-tert-butyl-2-({2-[4-(2-hydroxyethoxy)pyridin-2-yl]-5,5-dimethyl-5H,6H,7H-cyclopenta[d]pyrimidin-4-yl}(methyl)amino)acetamide] |
| 8 | CN(CC(=O)N1CCCCC1)c1nc(-c2cc(OCCO)ccn2)nc2c1C(C)(C)CC2 [Compound 362, 2-({2-[4-(2-hydroxyethoxy)pyridin-2-yl]-5,5-dimethyl-5H,6H,7H-cyclopenta[d]pyrimidin-4-yl}(methyl)amino)-1-(piperidin-1-yl)ethan-1-one] |
| 8.3 | COc1ccc(NC(=O)CN(C)c2nc(-c3cc(OCCO)ccn3)nc3c2C(C)(C)CC3)cn1 [Compound 363, 2-({2-[4-(2-hydroxyethoxy)pyridin-2-yl]-5,5-dimethyl-5H,6H,7H-cyclopenta[d]pyrimidin-4-yl}(methyl)amino)-N-(6-methoxypyridin-3-yl)acetamide] |
| 8 | CCC(C)(C)NC(=O)CN(C)c1nc(-c2cc(OCCO)ccn2)nc2c1CCC2 [Compound 367, 2-({2-[4-(2-hydroxyethoxy)pyridin-2-yl]-5H,6H,7H-cyclopenta[d]pyrimidin-4-yl}(methyl)amino)-N-(2-methylbutan-2-yl)acetamide] |
| 7.8 | CN(CC(=O)N1CCCC1(C)C)c1nc(-c2cc(OCCO)ccn2)nc2c1CCC2 [Compound 368, 1-(2,2-dimethylpyrrolidin-1-yl)-2-({2-[4-(2-hydroxyethoxy)pyridin-2-yl]-5H,6H,7H-cyclopenta[d]pyrimidin-4-yl}(methyl)amino)ethan-1-one] |
| 7.2 | CN(CC(=O)NC1COC1)c1nc(-c2cc(OCCO)ccn2)nc2c1CCC2 [Compound 374, 2-({2-[4-(2-hydroxyethoxy)pyridin-2-yl]-5H,6H,7H-cyclopenta[d]pyrimidin-4-yl}(methyl)amino)-N-(oxetan-3-yl)acetamide] |

The remaining lines, values behind:

| SMILES | pEC50 |
| --- | --- |
| CN(CC(=O)Nc1cccc(F)c1)c1nc(-c2cc(O[C@H]3C[C@@H](O)C3)ccn2)nc2c1CCC2 [Compound 345, N-(3-fluorophenyl)-2-[methyl(2-{4-[(1s,3s)-3-hydroxycyclobutoxy]pyridin-2-yl}-5H,6H,7H-cyclopenta[d]pyrimidin-4-yl)amino]acetamide] | 6.7 |
| COc1ccc(NC(=O)CN(C)c2nc(-c3cc(O[C@@H]4CCOC4)ccn3)nc3c2CCC3)cn1 [Compound 346, N-(6-methoxypyridin-3-yl)-2-[methyl(2-{4-[(3R)-oxolan-3-yloxy]pyridin-2-yl}-5H,6H,7H-cyclopenta[d]pyrimidin-4-yl)amino]acetamide] | 7.6 |
| COc1ccc(NC(=O)CN(C)c2nc(-c3cc(O[C@H]4CCOC4)ccn3)nc3c2CCC3)cn1 [Compound 347] | 7.6 |
| CN(C)CCOc1ccnc(-c2nc3c(c(N(C)CC(=O)NC(C)(C)C)n2)CCC3)c1 [Compound 348, N-tert-butyl-2-[(2-{4-[2-(dimethylamino)ethoxy]pyridin-2-yl}-5H,6H,7H-cyclopenta[d]pyrimidin-4-yl)(methyl)amino]acetamide] | 8.0 |
| CN(Cc1ncn(-c2cccc(F)c2)n1)c1nc(-c2cc(OCCO)ccn2)nc2c1CCC2 [Compound 351, 2-({2-[4-({[1-(3-fluorophenyl)-1H-1,2,4-triazol-3-yl]methyl}(methyl)amino)-5H,6H,7H-cyclopenta[d]pyrimidin-2-yl]pyridin-4-yl}oxy)ethan-1-ol] | 7.6 |
| CN(CC(=O)NC(C)(C)C)c1nc(-c2cc(-c3cnn(C)c3)ccn2)nc2c1CCC2 [Compound 352, N-tert-butyl-2-[methyl({2-[4-(1-methyl-1H-pyrazol-4-yl)pyridin-2-yl]-5H,6H,7H-cyclopenta[d]pyrimidin-4-yl})amino]acetamide] | 7.6 |
| CN(CC(=O)Nc1cnn(C2CC2)c1)c1nc(-c2cc(OCCO)ccn2)nc2c1CCC2 [Compound 353, N-(1-cyclopropyl-1H-pyrazol-4-yl)-2-({2-[4-(2-hydroxyethoxy)pyridin-2-yl]-5H,6H,7H-cyclopenta[d]pyrimidin-4-yl}(methyl)amino)acetamide] | 7.8 |
| CC(=O)NCCOc1ccnc(-c2nc3c(c(N(C)CC(=O)Nc4cccc(F)c4)n2)CCC3)c1 [Compound 356, 2-({2-[4-(2-acetamidoethoxy)pyridin-2-yl]-5H,6H,7H-cyclopenta[d]pyrimidin-4-yl}(methyl)amino)-N-(3-fluorophenyl)acetamide] | 8.3 |
| CCN(CC(=O)NC(C)(C)C)c1nc(-c2cc(OCCO)ccn2)nc2c1CCC2 [Compound 360, N-tert-butyl-2-[ethyl({2-[4-(2-hydroxyethoxy)pyridin-2-yl]-5H,6H,7H-cyclopenta[d]pyrimidin-4-yl})amino]acetamide] | 7.8 |
| CN(CC(=O)NC(C)(C)C)c1nc(-c2cc3ccoc3cn2)nc2c1CCC2 [Compound 365, N-tert-butyl-2-[(2-{furo[2,3-c]pyridin-5-yl}-5H,6H,7H-cyclopenta[d]pyrimidin-4-yl)(methyl)amino]acetamide] | 7.4 |
| C[C@@H](O)COc1ccnc(-c2nc3c(c(N(C)CC(=O)NC(C)(C)C)n2)CCC3)c1 [Compound 366, N-tert-butyl-2-[(2-{4-[(2R)-2-hydroxypropoxy]pyridin-2-yl}-5H,6H,7H-cyclopenta[d]pyrimidin-4-yl)(methyl)amino]acetamide] | 7.7 |
| CC(=O)NCCOc1ccnc(-c2nc3c(c(N(C)CC(=O)NC(C)(C)C)n2)CCC3)c1 [Compound 369, N-tert-butyl-2-({2-[4-(2-acetamidoethoxy)pyridin-2-yl]-5H,6H,7H-cyclopenta[d]pyrimidin-4-yl}(methyl)amino)acetamide] | 7.7 |
| C[C@H](O)COc1ccnc(-c2nc3c(c(N(C)CC(=O)NC(C)(C)C)n2)CCC3)c1 [Compound 370, N-tert-butyl-2-[(2-{4-[(2S)-2-hydroxypropoxy]pyridin-2-yl}-5H,6H,7H-cyclopenta[d]pyrimidin-4-yl)(methyl)amino]acetamide] | 8.2 |
| COc1ccnc(-c2nc3c(c(N(C)CC(=O)N[C@H]4CCOC4)n2)CCC3)c1 [Compound 371, 2-{[2-(4-methoxypyridin-2-yl)-5H,6H,7H-cyclopenta[d]pyrimidin-4-yl](methyl)amino}-N-[(3S)-oxolan-3-yl]acetamide] | 7.5 |
| COc1ccnc(-c2nc3c(c(N(C)CC(=O)N[C@@H]4CCOC4)n2)CCC3)c1 [Compound 372, 2-{[2-(4-methoxypyridin-2-yl)-5H,6H,7H-cyclopenta[d]pyrimidin-4-yl](methyl)amino}-N-[(3R)-oxolan-3-yl]acetamide] | 7.5 |
| COc1ccnc(-c2nc3c(c(N(C)CC(=O)NC4COC4)n2)CCC3)c1 [Compound 373, 2-{[2-(4-methoxypyridin-2-yl)-5H,6H,7H-cyclopenta[d]pyrimidin-4-yl](methyl)amino}-N-(oxetan-3-yl)acetamide] | 7.3 |
